Results reported in patent publication US7476522B2, “Method for producing γ-linolenic acids from a ciliate culture by adding suitable precursor molecules to said culture medium” (Nutrinova Nutrition Specialties & Food Ingredients GmbH, priority 2001, dated 2009).
Where two headings read alike, the source gives them in different places.

What was measured:
Tetrahymena = details: supplying acetate; cited from earlier work
[1] = tested on: Tetrahymena thermophila B1868VII
Method: (§1) Fermentations were carried out in a 1 l fermenter (700 ml working volume), 5 l fermenter (3 l working volume) and a 13 l fermenter (10 l working volume). The fermenters were equipped as standard with a pH electrode, a pO2 electrode, an aeration ring, a stirrer shaft with disk vein agitator, feed line for acid/alkali, feed line for feeding, inoculation fittings and sampling.
(§2) Fermentation conditions were as specified in Table 2.
(§3) To determine the biomass dry matter, 5 ml of cell culture were centrifuged for 10 min at 3400 g and 4° C., the supernatant was decanted and the cell pellet was frozen at −80° C. The frozen biomass was lyophilized and the weight of the biomass dry matter was determined.
(§4) The cell density was determined using the CASY 1 Cell Counter+Analyser System, Model TTC, Schärfe System. For measurement, the cells were diluted (1:500) in a weak CASY electrolyte solution and transported through a capillary of 150 μm diameter. The cells in a range of 15-50 μm particle size were counted.
(§5) The nonpolar lipid constituents (neutral lipids) were extracted from the biomass dry matter with n-hexane. For one batch, approximately 500 mg of biomass dry matter were stirred in 5 ml of n-hexane for 1 h at 60° C., then centrifuged for 2 min at 2700 g and the supernatant was purified by filtering off suspended matter. For the filtration, a Pasteur Pipette filled with cotton wool was used, having a fill height of approximately 1 cm. The cell residue for the first extraction was extracted a further time with 5 ml of solvent, the biomass was centrifuged off and the supernatant filtered. The purified organic phases of the two extractions were combined, the solvent was completely evaporated on a rotary evaporator and the amount of extracted lipid was determined by weighing.
(§6) The fatty acid spectrum was determined by means of a gas chromatograph (HP GC 6890) equipped with a flame ionization detector (Hewlett-Packard Company, Wilmington, USA). The column used was an FFAP (Free Fatty Acid Phase) Permbond (Macherey & Nagel GmbH, Düren). The fatty acids were identified by comparison with the retention times of fatty acid methyl ester standards. On the basis of the known concentration of the standard, the concentration of fatty acids in the samples could be determined.
(§7) 30-70 mg of the lyophilized biomass dry matter (see determination of biomass) were weighed out and were admixed with 1 ml of 20% strength methanolic HCl and 1 ml of methanolic standard solution (1 mg/ml). To liberate the fatty acids and transesterify them into fatty acid methyl esters, the samples were stirred in a closed test tube for two hours at 60° C. in a water bath and cooled to room temperature. To neutralize the sample, 1 ml of aqueous saturated sodium hydrogen carbonate solution was then added and the sample was mixed carefully. The fatty acid methyl esters were extracted by adding n-hexane. The batch was then mixed vigorously and phase separation was achieved by centrifuging for 2 min at 4300 rpm. About ⅔ of the upper organic phase was taken off and 1 μl of the sample was injected onto the GC column and analyzed (see also Table 5).
(§8) The fermentations were carried out in a 1-l fermenter containing 700 ml of MM-Var medium.

Tetrahymena pyriformis = details: cited from earlier work
[2] = tested on: Tetrahymena thermophila B1868VII; details: for lipid content versus standard fermentation: NaAc feed
Method: as §1, §2, §3, §4, §5, §6, §7, §8

[3] = acetate added before inoculation and also during culture

SMILES: CC(=O)[O-].[Na+] [NaAc, sodium acetate]
- composition of the fatty acids (Tetrahymena): not changed
- cell growth (cell density and biomass dry matter) [1]: adversely affected cell growth
- formation of GLA product by volume [1]: decreased
- GLA content of the biomass dry matter ([1]; 0.5 and 1.0 g/l NaAc in basal medium): not altered
- NL/BDM ([1]; MM-VAR containing 0.5 g/l of NaAc, 46 h): 8 %(w/w)
- NL/BDM ([1]; MM-VAR containing 0.5 g/l of NaAc, 70 h): 17 %(w/w)
- NL/BDM ([1]; MM-VAR containing 1.0 g/l of NaAc, 46 h): 11 %(w/w)
- NL/BDM ([1]; MM-VAR containing 1.0 g/l of NaAc, 70 h): 17 %(w/w)
- GLA content in the neutral lipid versus standard fermentation ([1]; NaAc added to MM-Var basal medium): only slight differences
- NL content ([1]; NaAc added to MM-Var basal medium, after 70 h, standard […]%): 17 % (w/w)
- lipid content versus standard fermentation ([1]; NaAc in basal medium, culture time 46 h): no significant difference
- GLA yield overall [1, 3]: impairment
- fatty acid spectrum and GLA content of the biomass [1, 3]: no marked change
- growth [1, 3]: poorer growth
- cell count (Tetrahymena pyriformis; 0.1% acetate added to basal medium which does not contain glucose, […]10^5 without): 1.6×10^5 cells per ml
- cell count (Tetrahymena pyriformis; acetate, basal medium which contains glucose, 1.85×10^5 without): 1.9×10^5 cells per ml
- cell growth (cell density and BDM) [2]: adverse effect on the cell growth
- formation of GLA product by volume [2]: impaired
- NL/BDM ([2]; Feed 0.02 g/l of NaAc, 46 h): 8 %(w/w)
- NL/BDM ([2]; Feed 0.02 g/l of NaAc, 70 h): 12 %(w/w)
- NL/BDM ([2]; Feed 0.4 g/l of NaAc, 46 h): 9 %(w/w)
- NL/BDM ([2]; Feed 0.4 g/l of NaAc, 70 h): 13 %(w/w)
- GLA content of the biomass dry matter ([2]; NaAc fed during culturing): unchanged
- lipid content versus standard fermentation ([2]; after 70 h): no significant increase
- lipid content versus standard fermentation ([2]; culture time 46 h): no difference
